These results are taken from US10272055B2, “Therapeutic compounds and methods” (Regents of the University of Minnesota, priority 2014, dated 2019).

One data set addresses CYP3A4D3-24 (Homo sapiens, UniProt P08684). The experiment in a line: Spectral binding (spin shift) to CYP3A4D3-24. Particulars: vs metformin.
The test system of the next data set is MDA-MB-231 xenograft. As to the kind of experiment: MDA-MB-231 xenograft in nude mice. The settings on record: HBB 4 mg/kg ip daily vs PBS/vehicle. In kind it is in vivo. On the procedure: FIG. 3A. MCF-7 xenograft with 3×10^6 cells in the 2nd mammary fat pad on day 0. HBB (4 mg/kg ip daily) (ν) or PBS (ρ) treatment began on day 1. * indicates P<0.05. FIG. 3B. MDAMB-231 xenograft with 1×10^6 cells in the 2nd mammary fat pad on day 0. HBB (4 mg/kg ip daily) (ν) or PBS (ρ) treatment began on day 1. N=20 mice per arm for each study; error bars are SEM.
FIG. 44A. Nude mice were inoculated with 3×10^6 MCF-7 cells and treated with vehicle (Δ) HBB at the MTD (4 mg/kg/day ip) (▪). (* indicates P<0.05). Error bars are SEM. […] The dose limiting toxicity was weight loss. At the MTD there was a well-tolerated 4% reduction of weight at 42 days (P<0.0001; data not shown). FIG. 44B. Nude mice were inoculated with 1×10^6MDA-MB-231 cells and treated with HBB at the MTD (4 mg/kg/day ip).

Data set [1] relates to CD31. The experiment in a line: Angiogenesis by CD31 staining, MCF-7 xenograft tumors. The settings on record: MCF-7 model, HBB 4 mg/kg/day ip vs PBS. The class given is in vivo, mice. Here is the method: (§1) Xenogaft tumors from the MCF-7 and MDA-MB-231 models were tested for inhibition of angiogenesis by HBB using CD31 staining.
(§2) The samples were cryosectioned at 6 um and fixed with chilled 100% acetone for 10 minutes. Samples were blocked with 3% donkey serum in PBS for 30 minutes at 37 C.
(§3) The antibody used to stain CD-31 was from BD Pharmingen PE Rat anti Mouse CD31, catalog number 553373. It was used at a dilution of 1:50 in blocking buffer for 1 hour at 37 C.
(§4) The samples were then stained for 10 minutes with DAPI at a concentration of 1:2000, from Life Technologies, catalog number D1306.
(§5) Each sample was imaged in 4-5 areas. There were 3 samples per condition, PBS vs HBB.

For another data set, the system named is MCF-7 cell line. The experiment in a line: MTT growth assay, MCF-7 line. The class given is cell-based. Here is the method:
The growth of the MCF-7 line was measured by MTT assay at 24 hours. Cells were plated in complete media in the presence of serum (10% FBS) and cultured at 37° C. with 5% CO2 and treated with the biguanide or DMSO vehicle. Growth was measured at 24 hours by MTT assay.
Cells were plated in complete media in the presence of serum (10% FBS) and cultured at 37° C. with 5% CO2 and treated with HBB or DMSO vehicle. Growth was measured at 24 hours by MTT assay.
For orientation: Tetrazolium assays rely on reduction of a dye to a coloured formazan, in cell work by metabolically active cells.

Data set [2] can be described thus: Tolerability in xenograft mice (MTD, weight). Particulars: mouse, in vivo. From the text:
[…]. (* indicates P<0.05). Error bars are SEM. […] The dose limiting toxicity was weight loss. At the MTD there was a well-tolerated 4% reduction of weight at 42 days (P<0.0001; data not shown). […].

Another data set concerns MCF7. The experiment in a line: Cell cycle analysis by flow cytometry, MCF7. Particulars: MCF7, HBB 20 uM, 6 hours. In kind it is cell-based. Here is the method:
Cells in log phase growth treated with HBB (20 uM) or DMSO for 6 hours were trypsinized and fixed in 70% ethanol at 4° C. overnight. The cells were washed with cold PBS and resuspended in Nicoletti buffer (50 μg/ml propidium iodide, 0.1% Triton X-100, 0.1% sodium citrate, pH 7.4, and 1 mg/ml RNase). The samples were then analyzed by flow cytometry (BD Biosciences), and data were analyzed using FlowJo software (Tree Star). Representative profile are shown.
For orientation: A flow cytometer gives signals particle by particle.

Another data set has as its system AMPK. The experiment in a line: AMPK phosphorylation Western blot in MCF7. In kind it is cell-based. Here is the method:
Western blotting analysis was performed in triplicate.
Cells were plated in complete media in the presence of serum (10% FBS) and cultured at 37° C. with 5% CO2 and treated with biguanides for 6 hours before harvesting. Total protein was extracted and analyzed by Western-blotting with GAPDH as an internal control.
Cells were plated in complete media in the presence of serum (10% FBS) and cultured at 37° C. with 5% CO2 and treated with 14,15-EET or EtOH control for 24 hours before harvesting. Total protein was extracted and analyzed by Western-blotting with GAPDH as an internal control.
(In general: Immunoblotting shows a protein as a band on a membrane.)

Data set [3] concerns CD31. The experiment in a line: Angiogenesis by CD31 staining, MDA-MB-231 xenograft tumors. In kind it is in vivo, mice. Particulars: MDA-MB-231 model, HBB 4 mg/kg/day ip vs PBS. Here is the method: as §1, §2, §3, §4, §5
In another data set the target is CYP3A4 epoxygenase (Homo sapiens, UniProt P08684). As to the kind of experiment: CYP3A4 Supersome epoxygenase assay: EET synthesis from arachidonic acid, LC-ESI-MS/MS. On the procedure: Measurements are reported as percentage of control reactions performed with vehicle but no compound. A ^13C-EET recovery standard was used to control for recovery of EETs from extractions. […] EET measurements in these Supersome experiments are expressed as percentage of control reactions. Absolute EET measurements are determined by subtraction of regioisomer values in a baseline reaction lacking NADPH. Measurements were performed in triplicate and values are expressed as the mean±SD.
After the reaction, EETs were then extracted with 1 mL dichloromethane and reconstituted in methanol and analyzed by LC-ESI-MS/MS.

The target in another data set is CYP3A4 nanodiscs (Homo sapiens, UniProt P08684). The experiment in a line: CYP3A4 nanodisc spin shift titration. The class given is binding. Particulars: vs metformin.
The test system of the next data set is MDA-MB-231 line. The experiment in a line: 14,15-EET protection against biguanide growth inhibition, MTT, MDA-MB-231. The class given is cell-based. The settings on record: MDA-MB-231, 1 uM 14,15-EET, 24 hours. On the procedure: Cells were plated in complete media in the presence of serum (10% FBS) and cultured at 37° C. with 5% CO2 and treated with HBB for 24 hours in the presence and absence of 1 uM 14,15-EET. Growth was then measured at 24 hours by MTT assay.
Results are expressed as mean±standard deviation (n=8).

The test system of the next data set is STAT3. As to the kind of experiment: STAT3 phosphorylation Western blot in MCF7. In kind it is cell-based. On the procedure: Western blotting analysis was performed (C=control, M=metform and H=HBB).
Total protein was extracted and analyzed by Western-blotting with GAPDH as an internal control.

“And” between values parts separate entries of the source, which are not always exact repeats. Equal entries are not always repeated. “Also recorded” adds a separate entry of the source.

Sequence of CYP3A4 epoxygenase (P08684 whole entry): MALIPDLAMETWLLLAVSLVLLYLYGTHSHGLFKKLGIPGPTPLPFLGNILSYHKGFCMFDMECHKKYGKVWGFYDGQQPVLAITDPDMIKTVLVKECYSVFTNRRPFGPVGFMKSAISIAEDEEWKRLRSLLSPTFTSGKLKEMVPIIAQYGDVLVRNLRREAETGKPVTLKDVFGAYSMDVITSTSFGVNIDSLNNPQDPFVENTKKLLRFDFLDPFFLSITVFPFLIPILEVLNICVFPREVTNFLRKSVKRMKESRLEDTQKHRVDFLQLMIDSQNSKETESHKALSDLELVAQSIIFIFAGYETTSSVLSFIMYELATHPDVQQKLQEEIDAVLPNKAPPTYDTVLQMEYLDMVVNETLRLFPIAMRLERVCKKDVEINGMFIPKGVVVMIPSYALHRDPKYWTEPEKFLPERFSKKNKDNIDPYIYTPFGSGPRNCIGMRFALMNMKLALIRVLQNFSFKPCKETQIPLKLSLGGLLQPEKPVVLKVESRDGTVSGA
Sequence of CYP3A4D3-24 (P08684 with tags, fused parts or gaps): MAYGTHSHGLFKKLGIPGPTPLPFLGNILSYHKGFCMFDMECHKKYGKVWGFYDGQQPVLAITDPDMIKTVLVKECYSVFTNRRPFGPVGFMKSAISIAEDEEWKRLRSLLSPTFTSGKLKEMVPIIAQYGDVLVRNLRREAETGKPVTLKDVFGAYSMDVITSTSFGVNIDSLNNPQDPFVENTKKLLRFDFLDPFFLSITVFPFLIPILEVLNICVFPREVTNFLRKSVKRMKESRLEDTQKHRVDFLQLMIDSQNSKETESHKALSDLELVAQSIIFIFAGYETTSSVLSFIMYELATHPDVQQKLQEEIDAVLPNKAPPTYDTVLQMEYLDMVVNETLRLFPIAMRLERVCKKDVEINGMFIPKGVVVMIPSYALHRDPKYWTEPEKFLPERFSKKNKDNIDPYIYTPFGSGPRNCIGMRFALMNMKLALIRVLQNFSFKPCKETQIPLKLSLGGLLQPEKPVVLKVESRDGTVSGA
Sequence of CYP3A4 nanodiscs (P08684 whole entry): as the sequence (P08684 whole entry) above

By IC50 is commonly meant the concentration that inhibits the measured activity by half. The MTD is the highest dose tested that stayed within the study's limit of toxicity. With `CCCCCCNC(=N)NC(=N)NCc1ccccc1` [HBB, N1-hexyl-N5-benzyl biguanide], the “fold more potent than metformin, delta 3-24 CYP3A4 spin shift” value at CYP3A4D3-24 is about 12 fold. The “tumor growth, MDA-MB-231 xenograft” value with MDA-MB-231 xenograft was “tumor growth wasn't inhibited; also recorded: no significant difference between the HBB and vehicle growth curves”. The “angiogenesis (CD31 staining)” value in the data set with CD31 [1] and with CD31 [3] was “inhibited angiogenesis in both models” throughout. Also, the IC50 was ~20 µM and 20 µM in the data set with MCF-7 cell line (MTT assay at 24 hours, 10% FBS, read-out: IC50, MCF-7 growth); 110 µM at CYP3A4 epoxygenase (IC50, inhibition of CYP3A4 epoxygenase). The “fold more potent than metformin, MCF-7 growth” value in the data set with MCF-7 cell line (vs metformin) is about 250 fold. Further, in [2], the dose limiting toxicity result is “weight loss”. Besides, the MTD at 42 days in [2] (nude, ip daily, read-out: maximum tolerated dose (MTD)) is 4 mg/kg. The cell cycle arrest entry with MCF7 was “induces G0/G1 and G2/M cell cycle arrest”. In addition, the “AMPK phosphorylation relative to control” value in the data set with AMPK (MCF7, 6 hours, metformin, buformin, phenformin 1 mM, HBB 20 uM) is on record as “more potently activates AMPK; also recorded: increased phosphorylation of AMPK”. The “fold more potent than metformin, activation of AMPK phosphorylation” value with AMPK (vs metformin) was about 50 fold. Also, at CYP3A4 epoxygenase (vs metformin), the “fold more potent than metformin, CYP3A4 epoxygenase” value was 50 fold and ~40 fold. The “fold more potent than metformin, CYP3A4 nanodisc spin shift” value at CYP3A4 nanodiscs is reported as about 4 fold. Besides, the “rescue of MDA-MB-231 growth by 14,15-EET in the presence of the biguanide” value with MDA-MB-231 line is on record as “no protection”. In the data set with STAT3 (MCF7, 6 hours, HBB 20 uM, metformin 10 uM), the “STAT3 phosphorylation relative to control” value is “decreased phosphorylation of STAT3”. Besides, in the data set on STAT3 (vs metformin), the “fold more potent than metformin, inhibition of Stat3 phosphorylation” value is about 50 fold.
